Data published in patent US10111936B2, “Metal-glycoprotein complexes and photodynamic therapy of immune privileged sites with same” (Theralase Technologies, Inc., priority 2015, dated 2018).
Read-outs that look alike come from different tables or passages of the source.

Legend:
Transferrin = Transferrin (Homo sapiens, UniProt P02787); test: Binding to transferrin by absorption spectra; settings: transferrin 0.2 mg/mL; photosensitizer 10 uM
Description: Transferrin (0.2 mg/mL) was incubated with the photosensitizers (10 uM) and absorption spectra were obtained.
Binding of Ruthenium and Ruthenium-Rhodium-based photosensitizers to transferrin is characterized by a characteristic signature: an increased peak of absorption at 280 nm and a new peak in 400-500 nm range.

Mice = test: In vivo toxicity, maximum tolerated dose, i.p. escalating doses; parameters: species or system mouse; settings: no transferrin
Description: Mice were injected (i.p.) with escalating doses of the photosensitizers with and without transferrin.

[1] = Photobleaching / absorbance stability; format: physicochemical; settings: 525 nm laser; 0.8 mg/mL transferrin
Description: Photobleaching was measured: (a) at wavelength in visible range maximal for each photosensitizer. This allows to estimate dynamics of amount of unbleached photosensitizer during irradiation; and (b) at 530, 635 and 808 nm. This allows estimating dynamics of unbleached photosensitizer available to exert PDT effect at these wavelengths as practically useful for PDT treatments.
(§1) Photosensitizers (10 uM) were dissolved in phosphate buffer+100 mM NaCl (pH=7.0) alone or in a buffer with 0.8 mg/mL of transferrin at a total volume of 1 mL. The mixture was then exposed to a 525 nm laser source (130 mW) and the absorbance at the maximal absorbance in visible range (432 nm for TLD1433, 425 nm for TLD143310 and 562 nm for TLDOsH2dppn) was measured at specific time points. The plot represents the absorbance ratio (absorbance of exposed samples/absorbance of unexposed sample) as a function of the number of incident photons per cm^−2. Decreasing absorbance ratio signifies bleaching of the photosensitizer.
as §1, with “530” for “the maximal absorbance in visible range (432”, “nm” for “nm for TLD1433, 425 nm for TLD143310 and 562 nm for TLDOsH2dppn)”
as §1, with “635” for “the maximal absorbance in visible range (432”, “nm” for “nm for TLD1433, 425 nm for TLD143310 and 562 nm for TLDOsH2dppn)”, “photosensitizer. […]” for “photosensitizer.”

AY27 cancer cells = test: Transferrin receptor antibody blocking, dark toxicity and PDT effect; format: cell-based; settings: 635 nm, 90 J cm−2, anti-transferrin receptor antibody
Description: The cells were incubated with anti-transferrin receptor antibody. The photosensitizer was pre-mixed in parallel with 0.4 mg/mL human transferrin and incubated for 1 hour at 37° C. In control group (no additional transferrin), equivalent volume of no-transferrin medium was added. The cells were washed of the excess of antibody (the cells incubated in medium without antibody served as comparison groups) and incubated with the pre-mixes for 30 minutes. After that, the medium was replaced with a fresh one (without photosensitizer and transferrin) and the cells were irradiated. On the next day (21 hours post-irradiation), viability of the cells was measured using Presto Blue viability assay, and percent of cell kill was calculated. The PDT effect shown is a result of subtraction of “photosensitizer alone” and “light alone” cell kill from the total PDT cell kill. Dark toxicity is shown on FIG. 20A, PDT effect is shown on FIG. 20B.
(§2) The cells were incubated with anti-transferrin antibody. […] On the next day (21 hours post-irradiation), viability of the cells was measured using Presto Blue viability assay, and percent of cell kill was calculated. […]
as §2

Transferrin, sequence (P02787 20-698): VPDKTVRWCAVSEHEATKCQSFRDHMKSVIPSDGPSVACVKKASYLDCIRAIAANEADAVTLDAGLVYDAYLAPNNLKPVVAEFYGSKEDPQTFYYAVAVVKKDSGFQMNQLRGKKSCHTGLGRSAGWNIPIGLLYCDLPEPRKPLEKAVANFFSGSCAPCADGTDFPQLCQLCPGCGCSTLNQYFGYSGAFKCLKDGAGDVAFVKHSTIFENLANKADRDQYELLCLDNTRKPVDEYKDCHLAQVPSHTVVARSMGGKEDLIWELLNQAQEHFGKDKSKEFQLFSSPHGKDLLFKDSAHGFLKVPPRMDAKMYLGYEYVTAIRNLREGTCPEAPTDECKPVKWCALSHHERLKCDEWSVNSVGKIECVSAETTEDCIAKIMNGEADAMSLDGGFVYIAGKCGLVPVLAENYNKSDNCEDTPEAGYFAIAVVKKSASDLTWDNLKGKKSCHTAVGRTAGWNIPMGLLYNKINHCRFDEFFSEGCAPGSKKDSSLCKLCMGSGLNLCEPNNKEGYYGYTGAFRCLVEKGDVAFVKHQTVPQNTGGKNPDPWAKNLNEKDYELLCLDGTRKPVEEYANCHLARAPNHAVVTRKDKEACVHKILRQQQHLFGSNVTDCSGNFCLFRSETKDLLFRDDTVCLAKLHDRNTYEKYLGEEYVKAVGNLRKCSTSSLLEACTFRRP

Structure (SMILES): [Os+2].c1ccc2cc3nc4c5cccnc5c5ncccc5c4nc3cc2c1.c1ccc2nc(-c3ccc4ccccc4n3)ccc2c1.c1ccc2nc(-c3ccc4ccccc4n3)ccc2c1 [TLDOsH2dppn]
- transferrin binding (absorption spectra) (Transferrin): transferrin binding
- MTD Dose (Mice): 50 mg/kg
- Therapeutic Ratio (U87 cells; 530 nm, 90 J cm−2, no transferrin): 1307.3
- Therapeutic Ratio (U87 cells; 530 nm, 90 J cm−2, transferrin): 5238.0
- Therapeutic Ratio (U87 cells; 650 nm, 90 J cm−2, no transferrin): 15.3
- Therapeutic Ratio (U87 cells; 650 nm, 90 J cm−2, transferrin): 50.3
- photobleaching, absorbance ratio at 530 nm [1]: bleaching of the photosensitizers was reduced
- photobleaching, absorbance ratio at 635 nm [1]: bleaching of the photosensitizers was reduced
- photobleaching, absorbance ratio at 808 nm [1]: bleaching of the photosensitizers was reduced
- effect of blocking transferrin receptors on dark toxicity and PDT effect (AY27 cancer cells): prevents decrease in dark toxicity and facilitation of PDT effect
